Experiments:
Assay type in all cases: biochemical
TMPRSS2 = TMPRSS2 (Homo sapiens, UniProt O15393); assay: PS-SCL / HyCoSuL substrate specificity screening, TMPRSS2; details: for P2 Position Substrate Activity for TMPRSS2 (percent substrate cleavage/proteolysis): residue fixed at P2 position of substrate library; for P3 Position Various Amino Acids Substrate Activity, TMPRSS2 (percent substrate cleavage/proteolysis) / P3 Position Substrate Activity for TMPRSS2 (percent substrate cleavage/proteolysis): residue fixed at P3 position of substrate library
TMPRSS2, sequence (O15393 whole entry): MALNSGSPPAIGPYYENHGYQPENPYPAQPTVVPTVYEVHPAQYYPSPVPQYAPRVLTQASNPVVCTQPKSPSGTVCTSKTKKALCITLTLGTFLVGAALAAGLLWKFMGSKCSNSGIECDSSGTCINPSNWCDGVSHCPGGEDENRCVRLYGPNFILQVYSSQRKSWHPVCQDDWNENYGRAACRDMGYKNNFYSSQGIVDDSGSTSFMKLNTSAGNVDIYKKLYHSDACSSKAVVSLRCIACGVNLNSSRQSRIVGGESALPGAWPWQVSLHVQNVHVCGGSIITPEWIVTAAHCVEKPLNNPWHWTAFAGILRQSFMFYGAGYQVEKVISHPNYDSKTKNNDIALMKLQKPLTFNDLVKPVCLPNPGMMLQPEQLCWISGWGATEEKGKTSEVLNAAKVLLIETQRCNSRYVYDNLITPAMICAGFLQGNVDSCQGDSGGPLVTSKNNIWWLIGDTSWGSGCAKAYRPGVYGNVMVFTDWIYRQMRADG

matriptase = target: T1, matriptase (Homo sapiens, UniProt Q9Y5Y6); assay: HyCoSuL P4-P2 substrate specificity screening, matriptase; details: for P2 Position Substrate Activity for matriptase (percent substrate cleavage/proteolysis): residue fixed at P2 position; for P3 Position Various Amino Acids Substrate Activity, matriptase (percent substrate cleavage/proteolysis): residue fixed at P3 position of substrate library; for P4 Position Various Amino Acids Substrate Activity, matriptase (percent substrate proteolysis/cleavage): residue fixed at P4 position of substrate library; for P3 Position Substrate Activity for matriptase (percent substrate cleavage/proteolysis): residue fixed at P3 position
T1 sequence (Q9Y5Y6 1-855): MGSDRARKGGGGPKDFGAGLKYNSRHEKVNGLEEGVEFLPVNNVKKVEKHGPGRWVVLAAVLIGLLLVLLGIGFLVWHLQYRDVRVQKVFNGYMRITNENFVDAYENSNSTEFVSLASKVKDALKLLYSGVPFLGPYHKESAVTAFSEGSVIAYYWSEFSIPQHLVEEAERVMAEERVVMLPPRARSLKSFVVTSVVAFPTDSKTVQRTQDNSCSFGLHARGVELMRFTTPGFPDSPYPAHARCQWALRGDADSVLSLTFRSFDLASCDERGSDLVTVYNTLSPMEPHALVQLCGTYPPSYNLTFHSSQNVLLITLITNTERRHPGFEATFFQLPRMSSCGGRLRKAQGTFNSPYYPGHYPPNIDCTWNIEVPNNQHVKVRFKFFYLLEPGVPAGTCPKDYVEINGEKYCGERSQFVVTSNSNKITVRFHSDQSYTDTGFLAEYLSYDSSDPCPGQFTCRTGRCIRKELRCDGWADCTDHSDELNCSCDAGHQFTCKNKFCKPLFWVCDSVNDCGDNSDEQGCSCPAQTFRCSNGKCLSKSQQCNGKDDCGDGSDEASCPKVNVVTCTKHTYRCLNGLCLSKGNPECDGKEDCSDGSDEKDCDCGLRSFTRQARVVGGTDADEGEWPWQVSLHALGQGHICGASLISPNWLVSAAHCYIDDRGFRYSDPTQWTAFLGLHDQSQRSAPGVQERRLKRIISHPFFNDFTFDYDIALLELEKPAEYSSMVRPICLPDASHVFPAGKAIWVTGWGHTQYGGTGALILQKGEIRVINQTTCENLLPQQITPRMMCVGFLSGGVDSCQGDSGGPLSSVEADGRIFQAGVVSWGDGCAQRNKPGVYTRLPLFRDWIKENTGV

hepsin = target: T2, hepsin (Homo sapiens, UniProt P05981); assay: HyCoSuL P4-P2 substrate specificity screening, hepsin; details: for P2 Position Substrate Activity for hepsin (percent substrate cleavage/proteolysis): residue fixed at P2 position; for P3 Position Various Amino Acids Substrate Activity, hepsin (percent substrate cleavage/proteolysis): residue fixed at P3 position of substrate library; for P4 Position Various Amino Acids Substrate Activity, hepsin (percent substrate proteolysis/cleavage): residue fixed at P4 position of substrate library; for P3 Position Substrate Activity for hepsin (percent substrate cleavage/proteolysis): residue fixed at P3 position
T2 construct: purchased R&D Systems 4776-SE-010
T2 sequence (P05981 163-417 limits assumed): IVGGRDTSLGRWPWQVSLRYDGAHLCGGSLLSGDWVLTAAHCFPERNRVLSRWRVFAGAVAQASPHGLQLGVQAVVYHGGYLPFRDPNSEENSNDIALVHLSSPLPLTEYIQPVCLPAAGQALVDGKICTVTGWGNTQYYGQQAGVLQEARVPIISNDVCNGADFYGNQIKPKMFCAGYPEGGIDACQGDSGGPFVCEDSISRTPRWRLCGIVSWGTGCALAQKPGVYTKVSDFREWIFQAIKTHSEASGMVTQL
T2 sequence (P05981 1-162 partner limits assumed): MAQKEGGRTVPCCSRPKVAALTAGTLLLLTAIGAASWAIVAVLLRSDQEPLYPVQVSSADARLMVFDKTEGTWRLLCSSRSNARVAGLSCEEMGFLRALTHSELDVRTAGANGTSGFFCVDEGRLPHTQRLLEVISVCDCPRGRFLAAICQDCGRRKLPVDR

HGFA = target: T3, HGFA (Homo sapiens, UniProt Q04756); assay: HyCoSuL P4-P2 substrate specificity screening, HGFA; details: for P2 Position Substrate Activity for HGFA (percent substrate cleavage/proteolysis): residue fixed at P2 position; for P3 Position Various Amino Acids Substrate Activity, HGFA (percent substrate cleavage/proteolysis): residue fixed at P3 position of substrate library; for P4 Position Various Amino Acids Substrate Activity, HGFA (percent substrate proteolysis/cleavage): residue fixed at P4 position of substrate library; for P3 Position Substrate Activity for HGFA (percent substrate cleavage/proteolysis): residue fixed at P3 position
T3 sequence (Q04756 373-655): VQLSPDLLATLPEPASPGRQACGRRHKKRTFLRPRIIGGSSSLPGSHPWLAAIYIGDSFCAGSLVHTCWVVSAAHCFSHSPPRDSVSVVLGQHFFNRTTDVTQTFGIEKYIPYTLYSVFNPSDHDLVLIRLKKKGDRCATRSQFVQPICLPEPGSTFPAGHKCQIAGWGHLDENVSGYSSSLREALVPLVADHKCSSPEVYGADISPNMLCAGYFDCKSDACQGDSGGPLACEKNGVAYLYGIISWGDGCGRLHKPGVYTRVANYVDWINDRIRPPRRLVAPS

[1] = best recognized amino acid set to 100%
[2] = residue fixed at P4 position of substrate library
[3] = P1-Arg HyCoSuL, 100 μM, best recognized amino acid set to 100%
[4] = residue fixed at P4 position, P1-Arg HyCoSuL, 100 μM, best recognized amino acid set to 100%

P2 Position Substrate Activity for TMPRSS2 (percent substrate cleavage/proteolysis) (TMPRSS2; [1]) [%]	P3 Position Various Amino Acids Substrate Activity, TMPRSS2 (percent substrate cleavage/proteolysis) (TMPRSS2) [%]	P4 Position Various Amino Acids Substrate Activity, TMPRSS2 (percent substrate proteolysis/cleavage) (TMPRSS2; [2]) [%]	P2 Position Substrate Activity for matriptase (percent substrate cleavage/proteolysis) (matriptase; [3]) [%]	P3 Position Various Amino Acids Substrate Activity, matriptase (percent substrate cleavage/proteolysis) (matriptase) [%]	P4 Position Various Amino Acids Substrate Activity, matriptase (percent substrate proteolysis/cleavage) (matriptase) [%]	P2 Position Substrate Activity for hepsin (percent substrate cleavage/proteolysis) (hepsin; [3]) [%]	P3 Position Various Amino Acids Substrate Activity, hepsin (percent substrate cleavage/proteolysis) (hepsin) [%]	P4 Position Various Amino Acids Substrate Activity, hepsin (percent substrate proteolysis/cleavage) (hepsin) [%]	P2 Position Substrate Activity for HGFA (percent substrate cleavage/proteolysis) (HGFA; [3]) [%]	P3 Position Various Amino Acids Substrate Activity, HGFA (percent substrate cleavage/proteolysis) (HGFA) [%]	P4 Position Various Amino Acids Substrate Activity, HGFA (percent substrate proteolysis/cleavage) (HGFA) [%]	P4 Position Substrate Activity for TMPRSS2 (percent substrate cleavage/proteolysis) (TMPRSS2; residue fixed at P4 position of substrate library, best recognized amino acid set to 100%) [%]	P4 Position Substrate Activity for matriptase (percent substrate cleavage/proteolysis) (matriptase; [4]) [%]	P4 Position Substrate Activity for hepsin (percent substrate cleavage/proteolysis) (hepsin; [4]) [%]	P4 Position Substrate Activity for HGFA (percent substrate cleavage/proteolysis) (HGFA; [4]) [%]	Substance	P3 Position Substrate Activity for TMPRSS2 (percent substrate cleavage/proteolysis) (TMPRSS2; [1]) [%]	P3 Position Substrate Activity for matriptase (percent substrate cleavage/proteolysis) (matriptase; [3]) [%]	P3 Position Substrate Activity for hepsin (percent substrate cleavage/proteolysis) (hepsin; [3]) [%]	P3 Position Substrate Activity for HGFA (percent substrate cleavage/proteolysis) (HGFA; [3]) [%]
0.00	32.80	33.20	1	21	18	32.27	29.53	36.68	6.32	13.41	6.44					L-Cit				
6.03	52.35	26.44	1	18	0	0.00	16.72	0.76	0.89	3.47	1.96					L-Gln				
15.38	26.27	24.98	30	17	10	31.24	43.05	25.35	4.00	11.93	8.90					L-His				

Further lines, the substance ahead of its results:

Substance	P2 Position Substrate Activity for TMPRSS2 (percent substrate cleavage/proteolysis) (TMPRSS2; [1]) [%]	P3 Position Various Amino Acids Substrate Activity, TMPRSS2 (percent substrate cleavage/proteolysis) (TMPRSS2) [%]	P4 Position Various Amino Acids Substrate Activity, TMPRSS2 (percent substrate proteolysis/cleavage) (TMPRSS2; [2]) [%]	P2 Position Substrate Activity for matriptase (percent substrate cleavage/proteolysis) (matriptase; [3]) [%]	P3 Position Various Amino Acids Substrate Activity, matriptase (percent substrate cleavage/proteolysis) (matriptase) [%]	P4 Position Various Amino Acids Substrate Activity, matriptase (percent substrate proteolysis/cleavage) (matriptase) [%]	P2 Position Substrate Activity for hepsin (percent substrate cleavage/proteolysis) (hepsin; [3]) [%]	P3 Position Various Amino Acids Substrate Activity, hepsin (percent substrate cleavage/proteolysis) (hepsin) [%]	P4 Position Various Amino Acids Substrate Activity, hepsin (percent substrate proteolysis/cleavage) (hepsin) [%]	P2 Position Substrate Activity for HGFA (percent substrate cleavage/proteolysis) (HGFA; [3]) [%]	P3 Position Various Amino Acids Substrate Activity, HGFA (percent substrate cleavage/proteolysis) (HGFA) [%]	P4 Position Various Amino Acids Substrate Activity, HGFA (percent substrate proteolysis/cleavage) (HGFA) [%]	P4 Position Substrate Activity for TMPRSS2 (percent substrate cleavage/proteolysis) (TMPRSS2; residue fixed at P4 position of substrate library, best recognized amino acid set to 100%) [%]	P4 Position Substrate Activity for matriptase (percent substrate cleavage/proteolysis) (matriptase; [4]) [%]	P4 Position Substrate Activity for hepsin (percent substrate cleavage/proteolysis) (hepsin; [4]) [%]	P4 Position Substrate Activity for HGFA (percent substrate cleavage/proteolysis) (HGFA; [4]) [%]	P3 Position Substrate Activity for TMPRSS2 (percent substrate cleavage/proteolysis) (TMPRSS2; [1]) [%]	P3 Position Substrate Activity for matriptase (percent substrate cleavage/proteolysis) (matriptase; [3]) [%]	P3 Position Substrate Activity for hepsin (percent substrate cleavage/proteolysis) (hepsin; [3]) [%]	P3 Position Substrate Activity for HGFA (percent substrate cleavage/proteolysis) (HGFA; [3]) [%]
L-Dab	0.00		12.90	0	66	32	13.49		47.53	0.50		16.76					36.73	66.02	48.55	29.40
L-Dap	4.32		16.80	9	52	16	10.01		35.65	1.49		13.31					43.61	51.80	48.71	24.27
L-Glu	6.08	56.51	9.81	6	44	18	12.19	58.69	29.82	3.35	15.98	9.01								
L-Hyp	10.38	2.19		2	0	50	38.67	4.70		3.95	2.18		33.28	50.16	37.81	10.66				
L-Ile	7.29	13.26	63.74	3	13	32	45.68	11.37	47.02	4.94	9.06	14.09								
L-Leu	5.90	18.81	30.24	12	22	17	100.00	19.51	33.10	100.00	13.71	10.18								

From patent publication US20250171495A1, “MUTLI-TARGETED SERINE PROTEASE INHIBITORS FOR TREATMENT OF CANCER AND VIRAL INFECTION” (Washington University, priority 2023, published 2025)
